T1: diastrophic dysplasia sulfate transporter (DTDST) (Mus musculus, UniProt Q62273)
T1 construct: gene Slc26a2; full open reading frame from mouse ileal epithelial cDNA, C-terminal FLAG tag, stably expressed in CHO-K1 cells (pcDNA3.1(+))
T1 sequence (Q62273 1-739): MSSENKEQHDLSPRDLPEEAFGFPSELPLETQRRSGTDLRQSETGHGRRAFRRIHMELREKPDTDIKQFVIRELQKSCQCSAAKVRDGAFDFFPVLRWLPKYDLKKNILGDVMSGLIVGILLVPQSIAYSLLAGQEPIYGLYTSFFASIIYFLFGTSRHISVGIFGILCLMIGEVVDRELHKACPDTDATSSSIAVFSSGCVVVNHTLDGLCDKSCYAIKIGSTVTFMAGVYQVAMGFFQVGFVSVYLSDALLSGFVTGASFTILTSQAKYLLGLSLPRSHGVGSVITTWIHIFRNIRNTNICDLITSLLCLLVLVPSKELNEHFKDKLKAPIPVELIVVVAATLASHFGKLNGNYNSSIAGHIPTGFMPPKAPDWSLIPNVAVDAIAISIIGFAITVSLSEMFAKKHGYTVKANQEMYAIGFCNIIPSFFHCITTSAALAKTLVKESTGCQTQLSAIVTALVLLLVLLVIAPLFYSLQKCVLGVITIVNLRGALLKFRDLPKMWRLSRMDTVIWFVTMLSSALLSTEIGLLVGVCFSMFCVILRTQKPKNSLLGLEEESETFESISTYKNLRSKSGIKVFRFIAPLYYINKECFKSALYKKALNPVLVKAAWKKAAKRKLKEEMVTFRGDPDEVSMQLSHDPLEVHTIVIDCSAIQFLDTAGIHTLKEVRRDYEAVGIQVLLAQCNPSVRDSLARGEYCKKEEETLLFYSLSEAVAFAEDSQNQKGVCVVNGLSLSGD


Assays:
[1] = molecular target: T1, diastrophic dysplasia sulfate transporter (DTDST); assay: inhibition of EGCg uptake into stably expressing CHO-K1 cells, LC-MS/MS; format: cell-based; details: 100 μM DIDS 1 h before EGCg; 500 μM EGCg, 30 min (Figure 4 legend; methods give 100 μM EGCg); pH 6.0, 37 °C
[2] = substrate: O=C(O[C@@H]1Cc2c(O)cc(O)cc2O[C@@H]1c1cc(O)c(O)c(O)c1)c1cc(O)c(O)c(O)c1; assay: EGCg uptake into stably expressing CHO-K1 cells, mock subtracted, LC-MS/MS; format: cell-based, Mus musculus; details: Hanks' balanced salt solution pH 6.0, 37 °C, 30 min, 1-1000 μM EGCg

Molecule | inhibition of EGCg uptake into stably expressing CHO-K1 cells, LC-MS/MS [1] | Km [2]
O=S(=O)(O)c1cc(N=C=S)ccc1/C=C/c1ccc(N=C=S)cc1S(=O)(=O)O [4,4′-diisothiocyano-2,2′-stilbenedisulfonic acid] | compared with mock cells was nullified in the presence of the DTDST inhibitor DIDS | –
diastrophic dysplasia sulfate transporter (DTDST) (Mus musculus) (protein, full open reading frame from mouse ileal epithelial cDNA, C-terminal FLAG tag, stably expressed in CHO-K1 cells (pcDNA3.1(+))) MSSENKEQHDLSPRDLPEEAFGFPSELPLETQRRSGTDLRQSETGHGRRAFRRIHMELREKPDTDIKQFVIRELQKSCQCSAAKVRDGAFDFFPVLRWLPKYDLKKNILGDVMSGLIVGILLVPQSIAYSLLAGQEPIYGLYTSFFASIIYFLFGTSRHISVGIFGILCLMIGEVVDRELHKACPDTDATSSSIAVFSSGCVVVNHTLDGLCDKSCYAIKIGSTVTFMAGVYQVAMGFFQVGFVSVYLSDALLSGFVTGASFTILTSQAKYLLGLSLPRSHGVGSVITTWIHIFRNIRNTNICDLITSLLCLLVLVPSKELNEHFKDKLKAPIPVELIVVVAATLASHFGKLNGNYNSSIAGHIPTGFMPPKAPDWSLIPNVAVDAIAISIIGFAITVSLSEMFAKKHGYTVKANQEMYAIGFCNIIPSFFHCITTSAALAKTLVKESTGCQTQLSAIVTALVLLLVLLVIAPLFYSLQKCVLGVITIVNLRGALLKFRDLPKMWRLSRMDTVIWFVTMLSSALLSTEIGLLVGVCFSMFCVILRTQKPKNSLLGLEEESETFESISTYKNLRSKSGIKVFRFIAPLYYINKECFKSALYKKALNPVLVKAAWKKAAKRKLKEEMVTFRGDPDEVSMQLSHDPLEVHTIVIDCSAIQFLDTAGIHTLKEVRRDYEAVGIQVLLAQCNPSVRDSLARGEYCKKEEETLLFYSLSEAVAFAEDSQNQKGVCVVNGLSLSGD | – | 576 ± 244 µM

Reference: paper PMC6662683, “Identification of the Catechin Uptake Transporter Responsible for Intestinal Absorption of Epigallocatechin Gallate in Mice” (Scientific Reports, 2019)
